According to PubChem BioAssay (NCI):
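How tested: cells in 96-well plates exposed to compound for 48 hours at five concentrations. TGI: total growth inhibition.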

How the values were obtained:
Assay in all cases: growth of human tumour cells (NCI), 48 h
[1] = system: CCRF-CEM leukemia
[2] = system: HCT-15 colon
[3] = system: HOP-92 NSCLC
[4] = system: HS 578T breast
[5] = system: K-562 leukemia
[6] = system: LOX IMVI melanoma
[7] = system: M14 melanoma
[8] = system: MALME-3M melanoma
[9] = system: MCF7 breast
[10] = system: MDA-MB-231 breast
[11] = system: NCI-H226 lung
[12] = system: NCI-H522 lung
[13] = system: NCI/ADR-RES ovarian
[14] = system: OVCAR-3 ovarian
[15] = system: SK-OV-3 ovarian
[16] = system: SN12C renal
[17] = system: SW-620 colon
[18] = system: U251 CNS
[19] = system: UACC-257 melanoma
[20] = system: UO-31 renal

| SMILES | TGI [1] [µM] | TGI [2] [µM] | TGI [3] [µM] | TGI [4] [µM] | TGI [5] [µM] | TGI [6] [µM] | TGI [7] [µM] | TGI [8] [µM] | TGI [9] [µM] | TGI [10] [µM] | TGI [11] [µM] | TGI [12] [µM] | TGI [13] [µM] | TGI [14] [µM] | TGI [15] [µM] | TGI [16] [µM] | TGI [17] [µM] | TGI [18] [µM] | TGI [19] [µM] | TGI [20] [µM] |
| --- | --- | --- | --- | --- | --- | --- | --- | --- | --- | --- | --- | --- | --- | --- | --- | --- | --- | --- | --- | --- |
| CCN(CC)c1ccc(/C=C/C(=O)c2cc(C(C)(C)C)c(O)c(C(C)(C)C)c2)cc1 | > 66 | > 100 | > 100 | > 39.9 | > 100 | > 100 | > 93.9 | > 100 | > 100 | 48.1 | 99.1 | 10.2 | 26.9 | > 100 | > 100 | > 84 | > 100 | 11.9 | > 100 | > 100 |
| OC(c1ccc2c(c1)OCO2)c1ccc2c(c1)OCO2 | > 100 | > 100 | > 100 | > 100 | > 100 | > 100 | > 100 | > 100 | > 100 | > 100 | > 100 | > 100 | > 100 | > 100 | > 100 | > 100 | > 100 | > 100 | > 100 | > 100 |
| COc1cc(/C=C\c2nnc(/C=C\c3ccc(O)c(OC)c3)s2)ccc1O | 14.5 | 18.1 | 42.2 | > 37.8 | > 21.2 | 22.4 | 9.58 | 24 | 11.3 | > 57.5 | 39 | 5.57 | 14.2 | 10.7 | 30.6 | > 92.8 | > 23.7 | 17.1 | > 30.7 | 15.3 |
| O=C(N/N=C/c1ccc([N+](=O)[O-])cc1)Nc1ccc(Br)cc1 | 84.5 | > 100 | > 100 | > 100 | > 100 | > 100 | > 100 | > 100 | > 100 | > 100 | > 100 | > 100 | > 100 | > 100 | > 100 | > 100 | > 100 | > 100 | > 100 | > 100 |
